Consider three compounds from patent US12622898B2, “Methods and compositions for improving bone marrow hematopoietic functions” (SUN YAT-SEN UNIVERSITY, priority 2019, dated 2026).

One data set deals with Pdk3. The data set is described as follows: Knock-down of Pdk3 in HSCs by siRNA. The class given is cell-based, mouse. As for the experimental part:
Bone marrow cells were diluted to the indicated concentration in PBS and were seeded into methylcellulose medium M3434 (StemCell Technologies) for CFU-GM, CFU-GEMM, and BFU-E colony formation assays according to the manufacturer's
The same number of cells from each population to be analyzed were sorted into PBS with 2% FBS. The cells then were washed with PBS and Lysised by RIPA. Equal amounts of protein extracts were fractionated by 12.5% SDS-PAGE and transferred to a PVDF membrane (IPVH00010, Merck Millipore). After blocked with 5% non-fat milk in Tris-buffered saline with Tween-20 (TBST, pH 7.6) for 1 h at room temperature, the membranes were incubated with primary antibodies anti-phospho-PDHE1-A type I (Ser293) (rabbit, 1:1000, ABS204, Merck Millipore), anti-Sphk2 (rabbit, 1:1000, 17096, Proteintech), anti-PDK3 (rabbit, 1:1000, 4970s, Proteintech), or anti-βactin (rabbit, 1:1000, 2118, Cell Signaling Technology), or with primary antibodies anti-PDK3 (rabbit, 1:1000, 12215, Proteintech), anti-β-actin (rabbit, 1:1000, 4970s, Cell Signaling Technology), overnight at 4° C. and then incubated with secondary antibodies (rabbit, 1:10,000, W401B, Promega) for 1 h at room temperature, which was detected by exposure to x-ray film, or by digital imaging with a charge-coupled device camera system (Odyssey Fc). The images shown are representative of images from at least three experiments. […]

The next data set has as its system Pdk3 expression in HSPCs. The data set is described as follows: Pdk3 mRNA levels and immunoblotting in HSCs treated with inhibitors. The class given is cell-based, mouse. As for the experimental part: The same number of cells from each population to be analyzed were sorted into PBS with 2% FBS. The cells then were washed with PBS and Lysised by RIPA. Equal amounts of protein extracts were fractionated by 12.5% SDS-PAGE and transferred to a PVDF membrane (IPVH00010, Merck Millipore). After blocked with 5% non-fat milk in Tris-buffered saline with Tween-20 (TBST, pH 7.6) for 1 h at room temperature, the membranes were incubated with primary antibodies anti-phospho-PDHE1-A type I (Ser293) (rabbit, 1:1000, ABS204, Merck Millipore), anti-Sphk2 (rabbit, 1:1000, 17096, Proteintech), anti-PDK3 (rabbit, 1:1000, 4970s, Proteintech), or anti-βactin (rabbit, 1:1000, 2118, Cell Signaling Technology), or with primary antibodies anti-PDK3 (rabbit, 1:1000, 12215, Proteintech), anti-β-actin (rabbit, 1:1000, 4970s, Cell Signaling Technology), overnight at 4° C. and then incubated with secondary antibodies (rabbit, 1:10,000, W401B, Promega) for 1 h at room temperature, which was detected by exposure to x-ray film, or by digital imaging with a charge-coupled device camera system (Odyssey Fc). The images shown are representative of images from at least three experiments.

The test system of data set [1] is HSPCs from Sphk2 deficient mice. The data set is described as follows: DCA treatment of Sphk2 deficient and control mice. It counts as in vivo, mouse. Particulars: Sphk2 deficient mice treated for 14 days, vs vehicle treated littermates. The text has this:
B6N.129S6-Sphk1tm1Rlp/J (Sphk1Δ/Δ) and B6N.129S6-Sphk2tm1Rlp/J (Sphk2Δ/Δ) mice were obtained from the Jackson Laboratory. To achieve tissue-specific deletion of Sphk2, the Sphk2^flox/flox mice were crossed with Vav-Cre transgenic mice. Sphk2^flox/flox mice was constructed by Cyagen Biosciences Inc. Briefly, linearized targeting vector was electroporated into embryonic stem (ES) cells and positive clones were identified by Southern blotting and injected into C57BL/6 blastocysts followed by chimera production to obtain germline transmission. The Frt-flanked Neo cassette was subsequently removed by mating with Flpe mice. 2-month-old mice or more than 20-month old for aging we used as indicated. 5 FU (Sigma-Aldrich) was injected once or once a week for survival curve as indicated in the tail vein at 150 μg/g body weight. Sphk2 inhibitor ABC294640 (Target Molecule Corp T6750) and PDK inhibitor Sodium dichloroacetate (DCA) (Selleck Chemicals S8615) were intraperitoneal injected at 25 mg/kg. […] Animals were randomly included in the experiments according to genotyping results as a mix of male and female. All animal experiments were performed according to protocols approved by the institutional animal care and use committee.
For phenotype analysis and hematopoietic purification, hematopoietic cells were harvested from bone marrow (femur and tibia). For cell surface phenotyping, a lineage cocktail (Lin, phycoerythrin (PE)-Cy5) was used, including anti-CD3 (145-2C11), anti-CD4 (RM4-5), anti-CD8 (53-6.7), anti-Mac-1 (M1/70), anti-Gr1 (RB6-8C5), anti-B220 (RA3-6B2), anti-IgM (11/41) and anti-TER119 (TER-119) (100 ng antibody cocktail per million bone marrow cells, Biolegend). Monoclonal antibodies to SCA1 (D7, Biolegend), c-KIT (2B8, Biolegend), FLK2 (A2F10, Biolegend), CD34 (RAM34, eBioscience), CD48 (HM48-1, Biolegend), CD41 (MWReg30, eBioscience), CD150 (TC15-12F12.2, BioLegend), CD16/32 (93, Biolegend), IL-7R (A7R34, Biolegend) (all used as 50 ng per million bone marrow cells) were also used where indicated. […]

On to “siRNA: siRNAs (GGACCTGCATCATGAACAATG, SEQ ID NO. 1) against mouse Pdk3 cloned into lentivirus pLKO.1-puro vector”, for which the “HSPC activity (myeloerythroid-colony-forming progenitors)” value in the data set with Pdk3 (Sphk2 deficient HSCs) is reported as “compromised”. In addition, in the data set with Pdk3 (control and Sphk2 deficient HSCs, immunoblotting), the PDH-E1α phosphorylation result is recorded as “reduced”.
For `CCCCCCCCc1ccc(CCC(N)(CO)CO)cc1` [FTY720], in the data set on Pdk3 expression in HSPCs, the “Pdk3 expression in HSPCs” value was “not”.
For `O=C([O-])C(Cl)Cl.[Na+]` [DCA, Sodium dichloroacetate], the HSPC numbers entry in data set [1] (25 mg/kg intraperitoneal) is listed as “reduced HSPC numbers”. Besides, in data set [1], the HSC quiescence result is reported as “compromised HSC quiescence” and the “ROS levels in HSPCs” value is listed as “increased ROS levels”.
